Patent US20100311714A1, “1H-IMIDAZO[4,5-c]QUINOLINONE COMPOUNDS” (priority 2009, published 2010)
Like-named read-outs stand apart in the source and are kept apart here.

Biological target: T1, PI3K alfa (Homo sapiens, UniProt P42336)
T1 construct: His tag (C); made in house; host or cells: baculovirus BV1075; Tn5 (Trichoplusia ni) or TiniPro insect cells
Experiment: PI3K alpha kinase assay (Kinase-Glo luminescence)
Type: biochemical
How it was run: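 IC50 values come from a four-parameter logistic fit of percent inhibition at eight concentrations, typically 10 to 0.003 μM. Recombinant PI3Kα at 10 nM turned over 1 μM ATP with 10 μg/mL PI for 60 min at room temperature, and residual ATP was measured by Kinase-Glo.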

T1 sequence (P42336 with tags, fused parts or gaps limits assumed): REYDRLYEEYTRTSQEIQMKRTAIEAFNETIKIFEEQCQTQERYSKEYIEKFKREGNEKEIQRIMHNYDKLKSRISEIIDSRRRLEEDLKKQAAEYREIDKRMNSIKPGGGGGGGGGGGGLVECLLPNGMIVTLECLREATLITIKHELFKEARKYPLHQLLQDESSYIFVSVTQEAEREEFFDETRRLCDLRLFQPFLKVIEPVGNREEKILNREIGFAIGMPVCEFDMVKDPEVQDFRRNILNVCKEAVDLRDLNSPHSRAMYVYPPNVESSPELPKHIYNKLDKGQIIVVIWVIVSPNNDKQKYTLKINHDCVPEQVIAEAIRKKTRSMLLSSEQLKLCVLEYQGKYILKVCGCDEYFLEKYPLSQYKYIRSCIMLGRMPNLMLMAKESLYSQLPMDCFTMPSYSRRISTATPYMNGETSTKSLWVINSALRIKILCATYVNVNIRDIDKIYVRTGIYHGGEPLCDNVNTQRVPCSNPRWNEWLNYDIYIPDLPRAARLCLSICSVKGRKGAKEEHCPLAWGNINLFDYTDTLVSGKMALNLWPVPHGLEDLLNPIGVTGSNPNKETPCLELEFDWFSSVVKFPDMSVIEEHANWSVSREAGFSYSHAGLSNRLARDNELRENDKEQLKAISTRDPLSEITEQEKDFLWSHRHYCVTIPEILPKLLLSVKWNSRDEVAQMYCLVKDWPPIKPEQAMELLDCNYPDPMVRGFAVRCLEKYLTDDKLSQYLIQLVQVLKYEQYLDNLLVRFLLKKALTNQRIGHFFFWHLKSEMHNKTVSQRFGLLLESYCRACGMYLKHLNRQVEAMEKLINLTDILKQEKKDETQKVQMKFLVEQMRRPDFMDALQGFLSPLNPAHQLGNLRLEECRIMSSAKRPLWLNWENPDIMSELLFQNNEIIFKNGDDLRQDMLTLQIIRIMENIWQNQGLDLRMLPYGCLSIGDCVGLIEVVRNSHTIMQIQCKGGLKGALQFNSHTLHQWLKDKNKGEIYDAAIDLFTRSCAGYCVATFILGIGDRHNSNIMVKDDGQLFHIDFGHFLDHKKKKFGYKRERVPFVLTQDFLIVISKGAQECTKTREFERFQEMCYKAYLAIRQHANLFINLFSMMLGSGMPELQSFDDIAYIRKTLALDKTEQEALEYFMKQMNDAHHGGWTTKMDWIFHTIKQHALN

Row | SMILES | IC50 (read-out: EPK_PI3Kalfa/IC50) [nM] | IC50 (read-out: PI3Kalfa/IC50) [nM]
1 | Cc1ncccc1-n1c(=O)n(C)c2cnc3ccc(-c4cncc(NC(C)C)c4)cc3c21 [Example 2.24, 8-(5-Isopropylamino-pyridin-3-yl)-3-methyl-1-(2-methyl-pyridin-3-yl)-1,3-dihydro-imidazo[4,5-c]quinolin-2-one] | 28 | –
2 | CNc1ncc(-c2ccc3ncc4c(c3c2)n(-c2ncccc2C)c(=O)n4C)cn1 [Example 3.4, 3-Methyl-8-(2-methylamino-pyrimidin-5-yl)-1-(3-methyl-pyridin-2-yl)-1,3-dihydro-imidazo[4,5-c]quinolin-2-one] | – | 80
3 | Cc1ncccc1-n1c(=O)n(C)c2cnc3ccc(-c4cnc(N)c(C(F)(F)F)c4)cc3c21 [Example 2.11, 8-(6-Amino-5-trifluoromethyl-pyridin-3-yl)-3-methyl-1-(2-methyl-pyridin-3-yl)-1,3-dihydro-imidazo[4,5-c]quinolin-2-one] | – | 7
4 | Cc1ccncc1-n1c(=O)n(C)c2cnc3ccc(-c4ccc(CO)nc4)cc3c21 [Example 4.1, 8-(6-Hydroxymethyl-pyridin-3-yl)-3-methyl-1-(4-methyl-pyridin-3-yl)-1,3-dihydro-imidazo[4,5-c]quinolin-2-one] | – | 230
5 | CCOc1cc(-c2ccc3ncc4c(c3c2)n(-c2cccnc2C)c(=O)n4C)cnc1COC [Example 2.28, 8-(5-Ethoxy-6-methoxymethyl-pyridin-3-yl)-3-methyl-1-(2-methyl-pyridin-3-yl)-1,3-dihydro-imidazo[4,5-c]quinolin-2-one] | 267 | –
6 | CNc1ncc(-c2ccc3ncc4c(c3c2)n(-c2ccc(N3CC(F)(F)C3)nc2C)c(=O)n4C)cn1 [Example 24.1, 1-[6-(3,3-Difluoro-azetidin-1-yl)-2-methyl-pyridin-3-yl]-3-methyl-8-(2-methylamino-pyrimidin-5-yl)-1,3-dihydro-imidazo[4,5-c]quinolin-2-one] | 49 | –

The next lines start with the values.

Row | IC50 (read-out: EPK_PI3Kalfa/IC50) [nM] | IC50 (read-out: PI3Kalfa/IC50) [nM] | SMILES
7 | 6 | – | Cc1nc(C(C)(C)O)ccc1-n1c(=O)n(C)c2cnc3ccc(-c4cnc(N)c(C(F)(F)F)c4)cc3c21 [Example 31.5, 8-(6-Amino-5-trifluoromethyl-pyridin-3-yl)-1-[6-(1-hydroxy-1-methyl-ethyl)-2-methyl-pyridin-3-yl]-3-methyl-1,3-dihydro-imidazo[4,5-c]quinolin-2-one]
8 | 9 | – | CCNc1cc(-c2ccc3ncc4c(c3c2)n(-c2ccc(N3CC(O)C3)nc2C)c(=O)n4C)cnc1CO [Example 29.2, 8-(5-Ethylamino-6-hydroxymethyl-pyridin-3-yl)-1-[6-(3-hydroxy-azetidin-1-yl)-2-methyl-pyridin-3-yl]-3-methyl-1,3-dihydro-imidazo[4,5-c]quinolin-2-one]
9 | 84 | – | CCOc1ccc(-c2ccc3ncc4c(c3c2)n(-c2ccc(C(C)(C)O)nc2C)c(=O)n4C)cn1 [Example 31.4, 8-(6-Ethoxy-pyridin-3-yl)-1-[6-(1-hydroxy-1-methyl-ethyl)-2-methyl-pyridin-3-yl]-3-methyl-1,3-dihydro-imidazo[4,5-c]quinolin-2-one]
10 | 27 | – | CNc1ccc(-c2ccc3ncc4c(c3c2)n(-c2ccc(N3CCC3)nc2C)c(=O)n4C)cn1 [Example 23.4, 1-(6-Azetidin-1-yl-2-methyl-pyridin-3-yl)-3-methyl-8-(6-methylamino-pyridin-3-yl)-1,3-dihydro-imidazo[4,5-c]quinolin-2-one]
11 | 31 | – | Cc1nc(C(C)(C)O)ccc1-n1c(=O)n(C)c2cnc3ccc(-c4cncc(C5(C#N)CCC5)c4)cc3c21 [Example 31.8, 1-(5-{1-[6-(1-Hydroxy-1-methyl-ethyl)-2-methyl-pyridin-3-yl]-3-methyl-2-oxo-2,3-dihydro-1H-imidazo[4,5-c]quinolin-8-yl}-pyridin-3-yl)-cyclobutanecarbonitrile]
12 | 7 | – | Cc1nc(N2CCC2)ccc1-n1c(=O)n(C)c2cnc3ccc(-c4cncc(C(C)(C)O)c4)cc3c21 [Example 23.3, 1-(6-Azetidin-1-yl-2-methyl-pyridin-3-yl)-8-[5-(1-hydroxy-1-methyl-ethyl)-pyridin-3-yl]-3-methyl-1,3-dihydro-imidazo[4,5-c]quinolin-2-one]
